PMC8763936 (Investigational New Drugs, 2021)
Marks after values point to notes of the source that are not given here.

Legend:
CYP2B6 = assay: Induction of CYP enzymes in human hepatocytes; assay type: in vitro ADME; details: percent of positive control
P-gp = P-gp (Homo sapiens, UniProt P08183); assay: In vitro P-gp substrate assay (Caco-2 and MDCKII-MDR1 cells); assay type: in vitro ADME; parameters: expressed in transfected cells; host or cells: MDCKII-MDR1 cells; also Caco-2 cells
[1] = parameters: method as in Roche data on file; details: human plasma; ref Roche data on file; cited from earlier work
[2] = humans, mass balance study; cited from earlier work
[3] = test system: CYPs 1A2, 2B6, 2C19, and 3A4; assay: Induction of CYP enzymes in human hepatocytes, CYPs tested taken together; assay type: in vitro ADME
CYP2C19 = assay: Induction of CYP enzymes in human hepatocytes; details: percent of positive control
Procedure: In vitro induction of CYP mRNA (CYPs 1A2, 2C8, 2C9 and 3A4) or enzyme activity (CYPs 1A2, 2C19 and 3A4) was assessed in human hepatocytes.

P-gp, sequence (P08183 whole entry): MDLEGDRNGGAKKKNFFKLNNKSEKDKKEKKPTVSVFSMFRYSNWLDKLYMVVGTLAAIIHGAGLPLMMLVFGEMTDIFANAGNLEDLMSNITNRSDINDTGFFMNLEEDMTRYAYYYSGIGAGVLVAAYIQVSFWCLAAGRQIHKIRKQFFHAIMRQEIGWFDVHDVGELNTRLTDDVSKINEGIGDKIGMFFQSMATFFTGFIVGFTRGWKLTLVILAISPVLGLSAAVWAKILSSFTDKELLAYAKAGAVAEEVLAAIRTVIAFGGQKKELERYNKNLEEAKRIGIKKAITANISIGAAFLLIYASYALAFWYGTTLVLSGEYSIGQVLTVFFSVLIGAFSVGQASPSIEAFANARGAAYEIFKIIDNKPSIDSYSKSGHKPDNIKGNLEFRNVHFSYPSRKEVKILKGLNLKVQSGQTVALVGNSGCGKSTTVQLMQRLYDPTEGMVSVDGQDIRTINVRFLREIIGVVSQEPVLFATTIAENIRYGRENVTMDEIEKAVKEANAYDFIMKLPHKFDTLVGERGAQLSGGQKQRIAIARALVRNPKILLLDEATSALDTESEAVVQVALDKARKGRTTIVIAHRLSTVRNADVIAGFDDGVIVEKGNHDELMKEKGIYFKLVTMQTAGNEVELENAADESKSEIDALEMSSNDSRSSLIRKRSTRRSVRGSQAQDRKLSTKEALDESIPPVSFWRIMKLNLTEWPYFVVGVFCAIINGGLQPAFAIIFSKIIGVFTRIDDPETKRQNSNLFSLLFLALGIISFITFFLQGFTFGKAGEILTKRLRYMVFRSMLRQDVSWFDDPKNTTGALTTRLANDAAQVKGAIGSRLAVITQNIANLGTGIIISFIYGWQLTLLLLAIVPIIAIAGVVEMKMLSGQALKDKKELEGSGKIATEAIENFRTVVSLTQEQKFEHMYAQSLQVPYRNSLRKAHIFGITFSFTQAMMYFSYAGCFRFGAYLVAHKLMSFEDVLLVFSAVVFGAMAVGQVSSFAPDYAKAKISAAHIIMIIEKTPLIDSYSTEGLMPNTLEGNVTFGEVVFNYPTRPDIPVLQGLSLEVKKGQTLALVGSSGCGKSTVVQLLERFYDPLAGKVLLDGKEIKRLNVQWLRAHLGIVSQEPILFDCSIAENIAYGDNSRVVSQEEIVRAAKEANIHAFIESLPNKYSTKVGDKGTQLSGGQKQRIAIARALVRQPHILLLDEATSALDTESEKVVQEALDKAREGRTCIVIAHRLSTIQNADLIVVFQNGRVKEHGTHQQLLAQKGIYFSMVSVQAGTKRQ

## O=C(Nc1n[nH]c2ccc(Cc3cc(F)cc(F)c3)cc12)c1ccc(N2CCNCC2)cc1NC1CCOCC1 [M5]
CYP2B6; M5 0.5 µM
  Relative Effectiveness ± SD Based on CYP Activity: 2.98% ±2.91
  Relative Effectiveness ± SD Based on CYP mRNA: 4.22% ±4.37
CYP2B6; M5 2.5 µM
  Relative Effectiveness ± SD Based on CYP Activity: 9.02% ±8.75
  Relative Effectiveness ± SD Based on CYP mRNA: 19.3% ±11.4
CYP2B6; M5 10 µM
  Relative Effectiveness ± SD Based on CYP Activity: 9.56% ±8.52
  Relative Effectiveness ± SD Based on CYP mRNA: 26.5% ±10.7
P-gp
  P-gp substrate status: substrate
[1]
  unbound fraction: < 1%
[2]
  share of total circulating radioactivity: 12%
[3]
  impact on the activities of the CYPs tested: no significant impact
CYP2C19; M5 0.5 µM
  Relative Effectiveness ± SD Based on CYP Activity: -1.21% ±0.94
CYP2C19; M5 2.5 µM
  Relative Effectiveness ± SD Based on CYP Activity: -3.22% ±3.41
CYP2C19; M5 10 µM, n=2
  Relative Effectiveness ± SD Based on CYP Activity: -9.87% ^a
